Data published in patent US9675624B2, “Combination of levocabastine and fluticasone furoate for the treatment of inflammatory and/or allergic conditions” (Glaxo Group Limited, priority 2012, dated 2017).

Experiment: Competitive ripening experiments on levocabastine free base forms
Type: physicochemical
Excerpt: It has been observed that the levocabastine HCl salt converts during the preparation of formulations of the invention (e.g. as described in Examples 1 and 2) to levocabastine free base. Levocabastine free base Forms 1 and 2 were observed during the form screen of the HCl salt and during pH solubility studies.

relative stability of polymorphic forms of the free base: most stable form
Structure (SMILES): C[C@@H]1CN(C2CCC(C#N)(c3ccc(F)cc3)CC2)CC[C@]1(C(=O)O)c1ccccc1 (stereo partly drawn) [levocabastine Form 1, (3S,4R)-1-[4-cyano-4-(4-fluorophenyl)cyclohexyl]-3-methyl-4-phenylpiperidine-4-carboxylic acid]
